Source: patent US20260159536A1, “AKR1C3-ACTIVATED DNA ALKYLATING AGENT, AND MEDICAL APPLICATION THEREOF” (ASCENTAWITS PHARMACEUTICALS, LTD., priority 2021, published 2026)

Test: in vitro
Settings: for % Remaining: with NADPH and AST-3021
Method: (1) Compound A for test, progesterone positive control, and 100 mM stock solutions of AST-3021 inhibitor were prepared and stored in the freezer (−10° C. to −30° C.).
1) Negative control group: at different time points (0 and 60 min), 30 μL/well of hepatocyte cytosol suspension containing 7.5 μM of sample for test was distributed in a 96-well plate. Three replicate wells were prepared in parallel.
2) Positive control group: at different time points (0, 5, 15, 30, 45 and 60 min), 30 μL/well of hepatocyte cytosol suspension containing 7.5 μM of the positive control was distributed in a 96-well plate. Three replicate wells were prepared in parallel.
3) Normal reaction group: at different time points (0, 5, 15, 30, 45 and 60 min), 30 μL/well of hepatocyte cytosol suspension containing 7.5 μM of sample for test was distributed in a 96-well plate. Three replicate wells were prepared in parallel.
4) Inhibition reaction group: at different time points (0, 5, 15, 30, 45 and 60 min), 30 μL/well of hepatocyte cytosol suspension containing […] of sample for test and 4.5 μM of the inhibitor was distributed in a 96-well plate. Three replicate wells were prepared in parallel.
6) 0 min samples: after 150 μL/well of acetonitrile containing the internal standard was added, then 15 μL/well of pre-heated NADPH working solution was added to the samples of normal reaction group, inhibition reaction group and positive control group, and 15 μL/well of pre-heated potassium phosphate buffer was added to the samples of negative control group.
7) Other samples (5, 15, 30, 45 and 60 min): for normal reaction group, inhibition reaction group and positive control group, 15 μL/well of pre-heated NADPH working solution was added to start the reaction; for negative control group, 15 μL/well of pre-heated potassium phosphate buffer was added. The reaction plates were then continued to incubate in a 37° C. water bath and the reactions were stopped by the addition of 150 μL/well of stop solution at the corresponding time points (5, 15, 30, 45 and 60 min).
The concentration of analyte in each sample was expressed as a peak area ratio (peak area analyte/peak areainternal standard), then the peak area ratio at 0 min was used as a reference to calculate the % Remaining at each time point of the incubation, and the ln logarithmic value of the % Remaining was linearly fitted to the incubation time and the half-life was calculated according to the following formula.
In the absence of AST-3021, 5 μM of progesterone was co-incubated with 2 mM of NADPH and 1 mg/mL of hepatocyte cytosol for 0-60 min as a positive control.

O=[N+]([O-])c1ccc(C(OP(=O)(N2CC2)N2CC2)C(F)(F)F)cc1Oc1ccc(-c2ccc(F)cc2)c(F)c1 (racemic) [Compound A]
average % Remaining (monkey, 2 mM NADPH + 3 μM AST-3021 (inhibition reaction group), 5 μM, 60 min): 69.52% | Metabolic parameter k (monkey, 2 mM NADPH, no AST-3021 (normal reaction / positive control group), 5 μM): 0.0046 | average % Remaining (monkey, 2 mM NADPH, no AST-3021 (normal reaction / positive control group), 5 μM, 0 min): 100.00% | average % Remaining (monkey, 2 mM NADPH, no AST-3021 (normal reaction / positive control group), 5 μM, 5 min): 98.89% | average % Remaining (monkey, 2 mM NADPH, no AST-3021 (normal reaction / positive control group), 5 μM, 15 min): 94.52% | average % Remaining (monkey, 2 mM NADPH, no AST-3021 (normal reaction / positive control group), 5 μM, 30 min): 89.81% | average % Remaining (monkey, 2 mM NADPH, no AST-3021 (normal reaction / positive control group), 5 μM, 45 min): 83.43% | average % Remaining (monkey, 2 mM NADPH, no AST-3021 (normal reaction / positive control group), 5 μM, 60 min): 73.28% | Metabolic parameter k (monkey, negative control group (no NADPH, no AST-3021), 5 μM): 0.0040 | average % Remaining (monkey, negative control group (no NADPH, no AST-3021), 5 μM, 0 min): 100.00% | average % Remaining (monkey, negative control group (no NADPH, no AST-3021), 5 μM, 60 min): 78.57% | average % Remaining (mouse, 60 min, no NADPH, no AST-3021): 83.01% | average % Remaining (mouse, 60 min, with NADPH, no AST-3021): 88.89% | % Remaining (mouse): 74.94% | Metabolic parameter k (mouse, 2 mM NADPH + 3 μM AST-3021 (inhibition reaction group), 5 μM): 0.0041 | average % Remaining (mouse, 2 mM NADPH + 3 μM AST-3021 (inhibition reaction group), 5 μM, 0 min): 100.00% | average % Remaining (mouse, 2 mM NADPH + 3 μM AST-3021 (inhibition reaction group), 5 μM, 5 min): 90.76% | average % Remaining (mouse, 2 mM NADPH + 3 μM AST-3021 (inhibition reaction group), 5 μM, 15 min): 87.29% | average % Remaining (mouse, 2 mM NADPH + 3 μM AST-3021 (inhibition reaction group), 5 μM, 30 min): 85.00% | average % Remaining (mouse, 2 mM NADPH + 3 μM AST-3021 (inhibition reaction group), 5 μM, 45 min): 82.33% | average % Remaining (mouse, 2 mM NADPH + 3 μM AST-3021 (inhibition reaction group), 5 μM, 60 min): 74.94% | Metabolic parameter k (mouse, 2 mM NADPH, no AST-3021 (normal reaction / positive control group), 5 μM): 0.0014 | average % Remaining (mouse, 2 mM NADPH, no AST-3021 (normal reaction / positive control group), 5 μM, 0 min): 100.00% | average % Remaining (mouse, 2 mM NADPH, no AST-3021 (normal reaction / positive control group), 5 μM, 5 min): 99.18% | average % Remaining (mouse, 2 mM NADPH, no AST-3021 (normal reaction / positive control group), 5 μM, 15 min): 109.17% | average % Remaining (mouse, 2 mM NADPH, no AST-3021 (normal reaction / positive control group), 5 μM, 30 min): 95.86% | average % Remaining (mouse, 2 mM NADPH, no AST-3021 (normal reaction / positive control group), 5 μM, 45 min): 95.38% | average % Remaining (mouse, 2 mM NADPH, no AST-3021 (normal reaction / positive control group), 5 μM, 60 min): 88.89% | Metabolic parameter k (mouse, negative control group (no NADPH, no AST-3021), 5 μM): 0.0031 | average % Remaining (mouse, negative control group (no NADPH, no AST-3021), 5 μM, 0 min): 100.00% | average % Remaining (mouse, negative control group (no NADPH, no AST-3021), 5 μM, 60 min): 83.01% | average % Remaining (rat, 60 min, no NADPH, no AST-3021): 68.42% | average % Remaining (rat, 60 min, with NADPH, no AST-3021): 71.72% | % Remaining (rat): 63.81% | Metabolic parameter k (rat, 2 mM NADPH + 3 μM AST-3021 (inhibition reaction group), 5 μM): 0.0068 | average % Remaining (rat, 2 mM NADPH + 3 μM AST-3021 (inhibition reaction group), 5 μM, 0 min): 100.00% | average % Remaining (rat, 2 mM NADPH + 3 μM AST-3021 (inhibition reaction group), 5 μM, 5 min): 88.10% | average % Remaining (rat, 2 mM NADPH + 3 μM AST-3021 (inhibition reaction group), 5 μM, 15 min): 86.23% | average % Remaining (rat, 2 mM NADPH + 3 μM AST-3021 (inhibition reaction group), 5 μM, 30 min): 83.84% | average % Remaining (rat, 2 mM NADPH + 3 μM AST-3021 (inhibition reaction group), 5 μM, 45 min): 78.06% | average % Remaining (rat, 2 mM NADPH + 3 μM AST-3021 (inhibition reaction group), 5 μM, 60 min): 63.81% | Metabolic parameter k (rat, 2 mM NADPH, no AST-3021 (normal reaction / positive control group), 5 μM): 0.0053 | average % Remaining (rat, 2 mM NADPH, no AST-3021 (normal reaction / positive control group), 5 μM, 0 min): 100.00% | average % Remaining (rat, 2 mM NADPH, no AST-3021 (normal reaction / positive control group), 5 μM, 5 min): 90.07% | average % Remaining (rat, 2 mM NADPH, no AST-3021 (normal reaction / positive control group), 5 μM, 15 min): 90.26% | average % Remaining (rat, 2 mM NADPH, no AST-3021 (normal reaction / positive control group), 5 μM, 30 min): 84.80% | average % Remaining (rat, 2 mM NADPH, no AST-3021 (normal reaction / positive control group), 5 μM, 45 min): 81.99% | average % Remaining (rat, 2 mM NADPH, no AST-3021 (normal reaction / positive control group), 5 μM, 60 min): 71.72% | Metabolic parameter k (rat, negative control group (no NADPH, no AST-3021), 5 μM): 0.0063 | average % Remaining (rat, negative control group (no NADPH, no AST-3021), 5 μM, 0 min): 100.00% | average % Remaining (rat, negative control group (no NADPH, no AST-3021), 5 μM, 60 min): 68.42%
